Measured values published in PubChem BioAssay AID248 (DTP/NCI, 2004).
Several values for one entry are separate records, joined by “and”; a condition that tells them apart may be missing. Equal entries are not always repeated. Inconclusive results and toxic doses are left out.

Test system: L1210 leukemia ip in BDF1 mice, survival T/C
Assay: NCI In Vivo Anticancer Drug Screen. Data for tumor model L1210 Leukemia (intraperitoneal) in B6D2F1 (BDF1) mice
Conditions: endpoint: mean survival time, higher = longer survival
Method in brief: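 Antitumor effect is assessed in tumor-bearing animals. Survival in the compound arm is compared with a vehicle-dosed control arm and expressed as their quotient.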

[1] = dose: 100.0 mg/kg/injection, schedule: Q01DX001 (ip), vehicle: saline
[2] = dose: 100.0 mg/kg/injection, schedule: Q01DX009 (ip), vehicle: Klucel (hydroxypropylcellulose) (HPC)
[3] = dose: 200.0 mg/kg/injection, schedule: Q01DX009 (ip), vehicle: Klucel (hydroxypropylcellulose) (HPC)
[4] = dose: 400.0 mg/kg/injection, schedule: Q01DX009 (ip), vehicle: Klucel (hydroxypropylcellulose) (HPC)
[5] = dose: 100.0 mg/kg/injection, schedule: Q01DX009 (ip), vehicle: saline with Tween-80
[6] = dose: 200.0 mg/kg/injection, schedule: Q01DX009 (ip), vehicle: saline with Tween-80
[7] = dose: 400.0 mg/kg/injection, schedule: Q01DX009 (ip), vehicle: saline with Tween-80
[8] = dose: 50.0 mg/kg/injection, schedule: Q01DX009 (ip), vehicle: Klucel (hydroxypropylcellulose) (HPC)
[9] = dose: 25.0 mg/kg/injection, schedule: Q01DX009 (ip), vehicle: saline
[10] = dose: 100.0 mg/kg/injection, schedule: Q01DX009 (ip), vehicle: saline
[11] = dose: 50.0 mg/kg/injection, schedule: Q01DX009 (ip), vehicle: saline with Tween-80
[12] = dose: 200.0 mg/kg/injection, schedule: Q01DX001 (ip), vehicle: saline
[13] = dose: 200.0 mg/kg/injection, schedule: Q01DX009 (ip), vehicle: saline
[14] = dose: 400.0 mg/kg/injection, schedule: Q01DX001 (ip), vehicle: saline
[15] = dose: 400.0 mg/kg/injection, schedule: Q01DX009 (ip), vehicle: saline
[16] = dose: 100.0 mg/kg/injection, schedule: Q04DX003 (ip), vehicle: Klucel (hydroxypropylcellulose) (HPC)
[17] = dose: 25.0 mg/kg/injection, schedule: Q04DX003 (ip), vehicle: saline with Tween-80
[18] = dose: 50.0 mg/kg/injection, schedule: Q04DX003 (ip), vehicle: saline with Tween-80
[19] = dose: 100.0 mg/kg/injection, schedule: Q04DX003 (ip), vehicle: saline with Tween-80

Nc1ncnc2c1ncn2C1OC(COC(=O)C2C3CC4CC(C3)CC2C4)C(O)C1O (stereo not drawn)
T/C [1]: 104 % of control

O=C(Nc1ccc(O)cc1)c1ccc([N+](=O)[O-])cc1
T/C [2]: 94 % of control | T/C [3]: 95 % of control | T/C [4]: 100 % of control

N#CCCC1C2CCC(C2)C1C#N (stereo not drawn)
T/C (dose: 3.0 mg/kg/injection, schedule: Q01DX009 (ip), vehicle: Klucel (hydroxypropylcellulose) (HPC)): 96 % of control | T/C (dose: 3.0 mg/kg/injection, schedule: Q04DX003 (ip), vehicle: Klucel (hydroxypropylcellulose) (HPC)): 96 % of control | T/C (dose: 6.0 mg/kg/injection, schedule: Q01DX009 (ip), vehicle: Klucel (hydroxypropylcellulose) (HPC)): 96 % of control | T/C (dose: 6.0 mg/kg/injection, schedule: Q04DX003 (ip), vehicle: Klucel (hydroxypropylcellulose) (HPC)): 98 % of control | T/C (dose: 12.0 mg/kg/injection, schedule: Q01DX009 (ip), vehicle: Klucel (hydroxypropylcellulose) (HPC)): 98 % of control | T/C (dose: 12.0 mg/kg/injection, schedule: Q04DX003 (ip), vehicle: Klucel (hydroxypropylcellulose) (HPC)): 98 % of control | T/C (dose: 12.5 mg/kg/injection, schedule: Q04DX003 (ip), vehicle: Klucel (hydroxypropylcellulose) (HPC)): 105 % of control

Cc1ccc(S(=O)(=O)OC2C(O)OCC3OC(C)(C)OC32)cc1 (stereo not drawn)
T/C [5]: 95 % of control | T/C [6]: 88 % of control | T/C [7]: 88 % of control

OC(C[n+]1ccsc1)c1ccccc1 (stereo not drawn)
T/C (dose: 75.0 mg/kg/injection, schedule: Q01DX001 (ip), vehicle: saline): 96 % of control | T/C (dose: 150.0 mg/kg/injection, schedule: Q01DX001 (ip), vehicle: saline): 100 % of control

Cc1c(-c2ccccc2)nn(O)c1-c1ccccc1
T/C [8]: 102 % of control | T/C [2]: 102 % of control | T/C [3]: 94 % of control

N/C(=N/O)c1cn(C2OC(CO)C(O)C2O)c2ncnc(NO)c12 (stereo not drawn)
T/C (dose: 12.5 mg/kg/injection, schedule: Q01DX009 (ip), vehicle: saline): 121 % of control | T/C [9]: 86 % of control

C[S+](C)C
T/C (dose: 12.0 mg/kg/injection, schedule: Q01DX009 (ip), vehicle: saline): 104 % of control | T/C [9]: 93 % of control and 100 % of control | T/C (dose: 25.0 mg/kg/injection, schedule: Q04DX003 (ip), vehicle: saline): 93 % of control | T/C [8]: 91 % of control | T/C (dose: 50.0 mg/kg/injection, schedule: Q01DX009 (ip), vehicle: saline): 100 % of control and 98 % of control | T/C (dose: 50.0 mg/kg/injection, schedule: Q04DX003 (ip), vehicle: saline): 98 % of control | T/C [1]: 96 % of control | T/C [10]: 90 % of control | T/C (dose: 100.0 mg/kg/injection, schedule: Q04DX003 (ip), vehicle: saline): 97 % of control and 88 % of control

CN(C)/N=C(\CBr)c1ccc([N+](=O)[O-])cc1
T/C [11]: 96 % of control | T/C [5]: 96 % of control | T/C [6]: 89 % of control

CCCCNC(c1ccc(C=NC(CC)(CO)CO)cc1)C(Br)(Br)Br (stereo not drawn)
T/C [1]: 92 % of control | T/C [10]: 88 % of control | T/C [12]: 92 % of control | T/C [13]: 90 % of control | T/C [14]: 97 % of control | T/C [15]: 91 % of control

O=C1C=C(c2ccccc2)C2(c3ccccc3)OC2O1 (stereo not drawn)
T/C [2]: 109 % of control | T/C [16]: 98 % of control | T/C [3]: 100 % of control | T/C (dose: 200.0 mg/kg/injection, schedule: Q04DX003 (ip), vehicle: Klucel (hydroxypropylcellulose) (HPC)): 98 % of control | T/C [4]: 98 % of control | T/C (dose: 400.0 mg/kg/injection, schedule: Q04DX003 (ip), vehicle: Klucel (hydroxypropylcellulose) (HPC)): 98 % of control

CCOC(=O)C12CCC(C(=O)O)(CC1)CC2
T/C (dose: 75.0 mg/kg/injection, schedule: Q04DX002 (ip), vehicle: Klucel (hydroxypropylcellulose) (HPC)): 100 % of control | T/C (dose: 150.0 mg/kg/injection, schedule: Q04DX002 (ip), vehicle: Klucel (hydroxypropylcellulose) (HPC)): 106 % of control | T/C (dose: 300.0 mg/kg/injection, schedule: Q04DX002 (ip), vehicle: Klucel (hydroxypropylcellulose) (HPC)): 110 % of control

O=C(COc1cccc(Cl)c1)Nc1cc[n+](Cc2ccc(S(=O)(=O)F)cc2)cc1
T/C [17]: 102 % of control | T/C [18]: 100 % of control | T/C [19]: 97 % of control and 113 % of control

O=C(O)C1CC=CCC1C(=O)NC(O)C(Cl)(Cl)Cl (stereo not drawn)
T/C [1]: 96 % of control | T/C [10]: 103 % of control | T/C (dose: 100.0 mg/kg/injection, schedule: Q04DX003 (ip), vehicle: acetone): 93 % of control | T/C [12]: 100 % of control | T/C [13]: 102 % of control | T/C (dose: 200.0 mg/kg/injection, schedule: Q04DX003 (ip), vehicle: acetone): 98 % of control | T/C [14]: 95 % of control | T/C [15]: 100 % of control | T/C (dose: 400.0 mg/kg/injection, schedule: Q04DX003 (ip), vehicle: acetone): 97 % of control

Cc1ccc(CC2NC(=O)NC2=O)cc1 (stereo not drawn)
T/C (dose: 25.0 mg/kg/injection, schedule: Q01DX009 (ip), vehicle: saline with Tween-80): 102 % of control | T/C [11]: 96 % of control | T/C [5]: 104 % of control | T/C [6]: 96 % of control | T/C [7]: 94 % of control

[CH3][Sb]([CH3])([CH3])([O]C(=O)CBr)[O]C(=O)CBr
T/C (dose: 12.5 mg/kg/injection, schedule: Q04DX003 (ip), vehicle: saline with Tween-80): 102 % of control | T/C [17]: 87 % of control | T/C [18]: 91 % of control

Cc1ccc(Cl)c(Br)c1
T/C [1]: 94 % of control | T/C [12]: 96 % of control | T/C [14]: 107 % of control

c1cnc(N2CCCCC2)cn1
T/C [1]: 94 % of control | T/C [12]: 96 % of control | T/C [14]: 102 % of control

CNC1=C(N2CC2)C(=O)C(NC)=C(N2CC2)C1=O
T/C (dose: 0.01 mg/kg/injection, schedule: Q01DX009 (ip), vehicle: Klucel (hydroxypropylcellulose) (HPC)): 97 % of control and 102 % of control | T/C (dose: 0.02 mg/kg/injection, schedule: Q01DX009 (ip), vehicle: Klucel (hydroxypropylcellulose) (HPC)): 100 % of control and 101 % of control | T/C (dose: 0.04 mg/kg/injection, schedule: Q01DX009 (ip), vehicle: Klucel (hydroxypropylcellulose) (HPC)): 109 % of control and 119 % of control | T/C (dose: 0.05 mg/kg/injection, schedule: Q01DX009 (ip), vehicle: saline): 106 % of control | T/C (dose: 0.09 mg/kg/injection, schedule: Q04DX003 (ip), vehicle: Klucel (hydroxypropylcellulose) (HPC)): 110 % of control | T/C (dose: 0.1 mg/kg/injection, schedule: Q01DX009 (ip), vehicle: saline): 118 % of control | T/C (dose: 0.1 mg/kg/injection, schedule: Q04DX003 (ip), vehicle: saline): 103 % of control | T/C (dose: 0.19 mg/kg/injection, schedule: Q01DX009 (ip), vehicle: Klucel (hydroxypropylcellulose) (HPC)): 161 % of control | T/C (dose: 0.2 mg/kg/injection, schedule: Q01DX009 (ip), vehicle: saline): 173 % of control | T/C (dose: 0.2 mg/kg/injection, schedule: Q04DX003 (ip), vehicle: saline): 112 % of control | T/C (dose: 0.37 mg/kg/injection, schedule: Q01DX001 (ip), vehicle: saline): 108 % of control | T/C (dose: 0.39 mg/kg/injection, schedule: Q01DX009 (ip), vehicle: Klucel (hydroxypropylcellulose) (HPC)): 112 % of control and 88 % of control | T/C (dose: 0.39 mg/kg/injection, schedule: Q04DX003 (ip), vehicle: Klucel (hydroxypropylcellulose) (HPC)): 156 % of control | T/C (dose: 0.78 mg/kg/injection, schedule: Q04DX003 (ip), vehicle: Klucel (hydroxypropylcellulose) (HPC)): 112 % of control and 115 % of control | T/C (dose: 0.8 mg/kg/injection, schedule: Q04DX003 (ip), vehicle: saline): 157 % of control

CCOC(=O)CN1C(=O)NC2(CCc3ccccc3C2)C1=O (stereo not drawn)
T/C (dose: 400.0 mg/kg/injection, schedule: Q04DX003 (ip), vehicle: saline with Tween-80): 98 % of control

CSc1nnc(-c2cccs2)s1
T/C [16]: 98 % of control

CC(CCC(=O)O)C1CCC2C3CCC4CC(OC=O)CCC4(C)C3CC(OC=O)C12C (stereo not drawn)
T/C [11]: 101 % of control | T/C [5]: 92 % of control | T/C [19]: 96 % of control | T/C [6]: 105 % of control

CSc1ncnc2c1ncn2N1CCCC1COS(=O)(=O)c1ccc(C)cc1 (stereo not drawn)
T/C (dose: 100.0 mg/kg/injection, schedule: Q01DX001 (ip), vehicle: DMSO): 96 % of control | T/C (dose: 200.0 mg/kg/injection, schedule: Q01DX001 (ip), vehicle: DMSO): 90 % of control | T/C (dose: 400.0 mg/kg/injection, schedule: Q01DX001 (ip), vehicle: DMSO): 95 % of control
